Legend:
[1] = system: Mice (C57/B6J) fed with high-fat food; details: 20 weeks old
Excerpt: Mice (C57/B6J, 8 weeks old male) were divided into 4 groups (5 animals each), and the first group (DB) was freely fed with ordinary food (CertifiedDiet “MF” manufactured by Oriental Yeast Co., ltd.). The second group (HFD) was freely fed with high-fat food (High Fat Diet 32, manufactured by CLEA Japan, Inc.), […].
When the mouse was 20 weeks old, the body weight, the liver weight, the serum aspartate aminotransferase (AST), the alanine aminotransferase (ALT), the serum triglyceride (TG), the free fatty acid value (FFA) and the total cholesterol value (T-cho) were measured.

[2] = system: subjects who had NAFLD in 31 IU/L or more of ALT; details: 300 mg per day oral
[3] = HFD6 and HFD60 groups in comparison to HFD group
[4] = high-fat food, glutathione 6 and 60 mg/kg/day in water

SMILES: N[C@@H](CCC(=O)N[C@@H](CS)C(=O)NCC(=O)O)C(=O)O [glutathione]
- FFA (free fatty acid value) [1, 3]: significant decrease
- T-cho (total cholesterol value) [1, 3]: significant decrease
- liver weight [1, 4]: decreased dependently on the concentration
- ratio of liver weight/body weight [1, 4]: decrease of the body weight ratio was also recognized
- body weight ([1]; high-fat food, glutathione 6 or 60 mg/kg/day in water): decrease of the body weight was recognized
- TG (triglyceride value) ([1]; serum, HFD6 and HFD60 groups in comparison to HFD group): significant decrease
- FibroScan (after treatment) CAP ([2]; after treatment, individual subject per table row): 280 dBe
- improvement of ALT after administration in comparison to ALT before the administration (0 wk) ([2]; Case IDs 1 to 9 of 16 subjects, at any week after initiation): ≥ 20%

From US20190125822A1, “COMPOSITION FOR IMPROVING OR PREVENTING NONALCOHOLIC FATTY LIVER” (KOHJIN LIFE SCIENCES CO., LTD., priority 2015, published 2019)
